Patent publication US7851475B2, “Substituted pyrrole-2, 5-diones as protein kinase C inhibitors” (Novartis AG, priority 2004, dated 2010)
pIC50: −log10 of the molar value.

Key:
[1] = target: T1, Human recombinant PKCα (Homo sapiens, UniProt P17252); test: Protein Kinase Cα Assay; type: biochemical; conditions: 10 μM 33P-ATP, 60 min room temperature
T1 construct: purchased Oxford Biomedical Research

[2] = target: Human recombinant PKCθ (Homo sapiens, UniProt Q04759); test: Protein Kinase C θ Assay
Sequence of Human recombinant PKCθ (Q04759 whole entry): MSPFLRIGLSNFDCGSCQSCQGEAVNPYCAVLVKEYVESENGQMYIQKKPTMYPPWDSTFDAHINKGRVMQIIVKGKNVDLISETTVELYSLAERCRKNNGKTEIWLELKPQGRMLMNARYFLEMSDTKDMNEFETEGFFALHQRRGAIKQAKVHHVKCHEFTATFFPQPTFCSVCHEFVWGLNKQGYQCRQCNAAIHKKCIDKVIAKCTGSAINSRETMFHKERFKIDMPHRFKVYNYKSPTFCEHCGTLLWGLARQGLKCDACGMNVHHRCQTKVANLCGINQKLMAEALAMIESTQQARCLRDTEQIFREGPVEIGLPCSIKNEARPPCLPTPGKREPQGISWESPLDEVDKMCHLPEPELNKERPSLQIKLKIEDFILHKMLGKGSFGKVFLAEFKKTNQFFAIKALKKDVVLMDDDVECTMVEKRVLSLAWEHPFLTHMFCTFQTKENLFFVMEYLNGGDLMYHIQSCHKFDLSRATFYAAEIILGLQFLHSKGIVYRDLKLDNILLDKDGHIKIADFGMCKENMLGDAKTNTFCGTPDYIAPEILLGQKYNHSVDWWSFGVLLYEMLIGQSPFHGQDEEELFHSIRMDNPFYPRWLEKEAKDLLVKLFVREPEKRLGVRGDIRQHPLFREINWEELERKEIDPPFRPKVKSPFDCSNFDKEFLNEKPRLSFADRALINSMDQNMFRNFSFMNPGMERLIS
Description: The compounds of the invention are tested for their activity on different PKC isoforms according to the following method. Assay is performed in a white with clear bottom 384-well microtiterplate with non-binding surface. The reaction mixture (25 μl) contains 1.5 μM of a tridecapeptide acceptor substrate that mimics the pseudo substrate sequence of PKC α with the Ala→Ser replacement, 10 μM ^33P-ATP, 10 mM Mg(NO3)2, 0.2 mM CaCl2, PKC at a protein concentration varying from 25 to 400 ng/ml (depending on the isotype used), lipid vesicles (containing 30 mol % phosphatidylserine, 5 mol % DAG and 65 mol % phosphatidylcholine) at a final lipid concentration of 0.5 mM, in 20 mM Tris-HCl buffer pH 7.4+0.1% BSA. Incubation is performed for 60 min at room temperature. Reaction is stopped by adding 50 μl of stop mix (100 mM EDTA, 200 μM ATP, 0.1% Triton X-100, 0.375 mg/well streptavidin-coated SPA beads in phosphate buffered saline w/o Ca, Mg). After 10 min incubation at room temperature, the suspension is spun down for 10 min at 300 g. Incorporated radioactivity is measured in a Trilux counter for 1 min. IC50 measurement is performed on a routine basis by incubating a serial dilution of inhibitor at concentrations ranging between 1-1000 μM. IC50 values are calculated from the graph by curve fitting with XL fit® software.

[3] = tested on: spleen cells from CBA and BALB/c mice; test: Allogeneic Mixed Lymphocyte Reaction (MLR); type: cell-based; conditions: two-way MLR, CBA and BALB/c mouse spleen cells, four days incubation, read-out: IC50 MLR (3H-thymidine incorporation, proliferation)
Description: The two-way MLR is performed according to standard procedures (J. Immunol. Methods, 1973, 2, 279 and Meo T. et al., Immunological Methods, New York, Academic Press, 1979, 227-39). Briefly, spleen cells from CBA and BALB/c mice (1.6×10^5 cells from each strain per well in flat bottom tissue culture microtiter plates, 3.2×10^5 in total) are incubated in RPMI medium containing 10% FCS, 100 U/ml penicillin, 100 μg/ml streptomycin (Gibco BRL, Basel, Switzerland), 50 μM 2-mercaptoethanol (Fluka, Buchs, Switzerland) and serially diluted compounds. Seven three-fold dilution steps in duplicates per test compound are performed. After four days of incubation 1 μCi ^3H-thymidine is added. Cells are harvested after an additional five-hour incubation period, and incorporated ^3H-thymidine is determined according to standard procedures. Background values (low control) of the MLR are […].
[…] proliferation of BALB/c cells alone. Low controls are subtracted from all values. High controls without any sample are taken as 100% proliferation. […]

[4] = tested on: Jurkat cells transfected with a human interleukin-2 promoter/reporter gene construct; test: CD28 Costimulation Assay; type: cell-based; conditions: stimulated transfected Jurkat cells, 5.5 hours, stimulus not specified for these values, read-out: IC50 CD28 costimulation assay (luciferase reporter)
Description: The assay is performed with Jurkat cells transfected with a human interleukin-2 promoter/reporter gene construct as described by Baumann G et al. in Transplant. Proc. 1992; 24:43-8, the β-galactosidase reporter gene being replaced by the luciferase gene (de Wet J., et al., Mol. Cell. Biol. 1987, 7(2), 725-737). Cells are stimulated by solid phase-coupled antibodies or phorbol myristate acetate (PMA) and the Ca^++ ionophore ionomycin as follows. For antibody-mediated stimulation Microlite TM1 microtiter plates (Dynatech) are coated with 3 μg/ml goat anti-mouse IgG Fc antibodies (Jackson) in 55 μl phosphate-buffered saline (PBS) per well for three hours at RT. Plates are blocked after removing the antibodies by incubation with 2% bovine serum albumin (BSA) in PBS (300 μl per well) for 2 hours at RT. […] After incubation for 5.5 hours at 37° C. in 5% CO2, the level of luciferase is determined by bioluminescence measurement. […] Luciferase activity is assessed with a bioluminescence reader (Labsystem, Helsinki, Finland) after automatic addition of 50 μl per well luciferase reaction buffer containing 20 mM Tricine, 1.07 mM (MgCO3)4Mg(OH)2×5H2O, 2.67 mM MgSO4, 0.1 mM EDTA, 33.3 mM DTT, 270 μM coenzyme A, 470 μM luciferin (Chemie Brunschwig AG), 530 μM ATP, pH 7.8. […] The inhibition obtained in the presence of a test compound is calculated as percent inhibition of the high control. […]

Row | pIC50 [1] | pIC50 [2] | pIC50 [4] | SMILES | pIC50 [3]
1 | 8.59 | 8.05 | 7.59 | CN1CCN(c2ccc([N+](=O)[O-])c(C3=C(c4c[nH]c5ccccc45)C(=O)NC3=O)c2)CC1 [Example 1, 3-(1H-indol-3-yl)-4-[5-(4-methyl-piperazin-1-yl)-2-nitro-phenyl]-pyrrole-2,5-dione] | 7.76
2 | 8.54 | 7.99 | 7.77 | Cc1cccc2c(C3=C(c4cc(N5CCN(C)CC5)ccc4[N+](=O)[O-])C(=O)NC3=O)c[nH]c12 [Example 4] | 7.62
